The subject of one series is FaSSIF/pancreatin. The series is described as follows: Fasted-state simulated intestinal fluid/pancreatin assay. It counts as in vitro ADME. The conditions noted are these: FaSSIF/USP pancreatin; analytical RP-HPLC. On the procedure:
Fresh FaSSIF and USP Pancreatin (FaSSIF/p; Sigma-Aldrich) was prepared according to Galia et al[55]. and used immediately. Peptides were dissolved in pre-warmed FaSSIF before addition of pre-warmed FaSSIF/pancreatin with agitation. Samples were analyzed by analytical RP-HPLC to determine remaining intact peptide by area under the curve.

Details of series [1]: method as in PMID 30429357. The conditions noted are these: oral semaglutide in dogs; cited from earlier work.
A short description of series [2]: Pharmacokinetics of oral tablets in dogs. In kind it is in vivo. The conditions noted are these: oral tablets 20 mg/dog, semaglutide: 300 mg SNAC, uncoated, MEDI7219: 100 mg NaCDC and 200 mg PG, pH 5.5 enteric, arithmetic mean (% CV).
Another series relates to rat plasma protein. The series is described as follows: EScalate equilibrium shift assay, rat plasma. It counts as in vitro ADME. The conditions noted are these: EScalate equilibrium shift assay.
Series [3] in a line: Bioavailability after intraduodenal administration with permeation enhancers in rats. It counts as in vivo, rat. Conditions: single intraduodenal administration with permeation enhancers (NaCDC and PG), n = 4 per group. On the procedure: Male Sprague Dawley rats (Charles River, Shrewsbury, MA, USA) weighing 250–275 g were housed with ad libitum access to standard chow and water. Test peptides were administered via either an intravenous or a duodenal catheter (4 rats per group) after overnight fasting, and food was returned following 4 h blood collection. Blood was collected via a jugular vein catheter at − 5, 15 and 30 min and 1, 2, 4, 8 and 24 h after intravenous dosing, or for intraduodenal groups at 15 min predose and 0.5, 1, 2, 4, 8, 24 and 48 h postdose. Blood was collected in K2EDTA tubes and kept on wet ice prior to 10 min centrifugation (3000 × g) at 5 °C ± 3 °C. Plasma samples were stored at − 70 °C until analysis.
Fifty or seventy μL aliquots of K2EDTA plasma samples were precipitated with 75% acetonitrile (Sigma-Aldrich) in water (J.T. Baker, Phillipsburg, NJ, USA) (v/v) and centrifuged at 2000 × g. The supernatant was dried under nitrogen at 60 °C, then cooled. Samples were reconstituted in 20% acetonitrile in water (v/v). […] Gradient separation was performed with water and 0.2% formic acid (Thermo Fisher Scientific, Waltham, MA, USA) as mobile phase A, and acetonitrile with 0.2% formic acid as mobile phase B. The method was qualified for the quantification range of 1–1000 ng/mL with accuracy and precision of ± 20%, except for at the lower limit of quantification when the accuracy and precision were ± 25%. Plasma concentrations were subject to noncompartmental analysis consistent with the route of administration using Phoenix WinNonlin (version 7.0, Certara, Princeton, NJ, USA).

For series [4] the following is noted: oral semaglutide with SNAC; cited from earlier work. The source says:
Previous approaches to engineering peptide therapeutics include substitution with unnatural amino acids to protect proteolytically vulnerable sites, and lipidation to promote reversible serum protein binding and reduced renal clearance[40]–[42]. […] Ala[8] is replaced with artificial α-methyl-L-alanine to protect the peptide against serum DPP-IV and the peptide is mono-lipidated at Lys[26],[43]. Despite these modifications, semaglutide is still susceptible to rapid proteolytic degradation in th ...

A further series relates to dog plasma protein. The series can be described thus: EScalate equilibrium shift assay, dog plasma. In kind it is in vitro ADME.
The test system of a further series is monkey plasma protein. The series is described as follows: EScalate equilibrium shift assay, monkey plasma. It counts as in vitro ADME. The conditions noted are these: EScalate equilibrium shift assay. How it is done: [The procedure below names another species; the source lists this species under the same test.] (§1) Binding of peptides to human plasma proteins was determined by the EScalate equilibrium shift assay (Sovicell, Leipzig, Germany), using five dilutions of plasma in phosphate buffered saline and an assumed binding protein concentration of 600 µM. Samples were incubated for 1 h at room temperature then centrifuged to remove the HSA-coated beads. Supernatant samples were analyzed using HPLC (3 µm Phenomenex Aeris Widepore XB-C18 stationary phase) coupled to an electrospray ionization quadrupole time-of-flight mass spectrometer in high resolution accurate mass mode (Agilent, Santa Clara, CA, USA). Unbound fractions were calculated from the concentration-dependent shift in binding equilibrium according to fu=1/1+P/KDPlasma , where P is the concentration of the binding protein in plasma and KDPlasma is the dissociation constant of the compound from plasma proteins in solution.

The subject of another series is human plasma protein. The series is described as follows: EScalate equilibrium shift assay, human plasma. It counts as in vitro ADME. Conditions: EScalate equilibrium shift assay. On the procedure:
as §1

Data on one compound can be found in publication PMC8602401 (Scientific Reports, 2021).

In the case of `CC[C@H](C)[C@H](NC(=O)[C@H](Cc1ccccc1)NC(=O)[C@H](CCC(=O)O)NC(=O)[C@H](CCCCNC(=O)COCCOCCNC(=O)COCCOCCNC(=O)CC[C@H](NC(=O)CCCCCCCCCCCCCCCCC(=O)O)C(=O)O)NC(=O)[C@H](C)NC(=O)[C@H](C)NC(=O)[C@H](CCC(N)=O)NC(=O)CNC(=O)[C@H](CCC(=O)O)NC(=O)[C@H](CC(C)C)NC(=O)[C@H](Cc1ccc(O)cc1)NC(=O)[C@H](CO)NC(=O)[C@H](CO)NC(=O)[C@@H](NC(=O)[C@H](CC(=O)O)NC(=O)[C@H](CO)NC(=O)[C@@H](NC(=O)[C@H](Cc1ccccc1)NC(=O)[C@@H](NC(=O)CNC(=O)[C@H](CCC(=O)O)NC(=O)C(C)(C)NC(=O)[C@@H](N)Cc1cnc[nH]1)[C@@H](C)O)[C@@H](C)O)C(C)C)C(=O)N[C@@H](C)C(=O)N[C@@H](Cc1c[nH]c2ccccc12)C(=O)N[C@@H](CC(C)C)C(=O)N[C@H](C(=O)N[C@@H](CCCNC(=N)N)C(=O)NCC(=O)N[C@@H](CCCNC(=N)N)C(=O)NCC(=O)O)C(C)C` [Semaglutide, semaglutide, reference compound], in the series on FaSSIF/pancreatin, the “time to complete degradation in FaSSIF/pancreatin” value is listed as “less than 20 min”. For the same compound, in series [1], the “published bioavailability (%F) in dogs” value was 1.22%. For the same compound, in series [2] (n = 9), the AUC0-inf was 1,440 (45.8) ng·h/mL and the “F (bioavailability, systemic fraction)” value is 0.08 (45.8) %. Also, the “F (bioavailability, systemic fraction)” value in series [2] (n = 9, listed as semaglutide) stood at 0.08%. Moreover, in [2] (plasma, LC/MS, n = 9), the t½ is given as 60.5 (13.6) hours. In addition, the “peptide bound to plasma proteins, rat” value with rat plasma protein is “over 97%”. In addition, the “mean bioavailability (%F)” value in series [3] is reported as 0.08%. The “bioavailability of oral formulation with SNAC” value in series [4] was 0.4–1%. The “peptide bound to plasma proteins, dog” value with dog plasma protein (EScalate equilibrium shift assay) is recorded as “over 97%”. Moreover, in the series on dog plasma protein (EScalate equilibrium shift, five dilutions of plasma in PBS, 1 h at room temperature, HPLC-QTOF MS), the “Fraction unbound peptide (%), dog” value is reported as 0.37%. Further, the “peptide bound to plasma proteins, monkey” value in the series on monkey plasma protein is listed as “over 97%”. Besides, in the series with human plasma protein, the “peptide bound to plasma proteins, human” value is listed as “over 97%”.
